# Assay results taken from patent US4746509A, “Transdermal medicament” (Rhone-Poulenc Sante, priority 1983, dated 1988).
# Counter-ions that a name gives are not always drawn.
# Experiment: Solubility in water
# Format: physicochemical
smiles,measurement,value
CCCC(=O)Nc1ccc(OCC(O)CNC(C)C)c(C(C)=O)c1 (stereo not shown) [acebutolol hydrochloride],solubility in water,soluble in water
